Measured values published in ChEMBL document CHEMBL3132772 (Medchemcomm, 2014).

How the values were obtained:
[1] = target: Trypsin (Homo sapiens, UniProt P07477+P07478+P35030); assay: Inhibition of trypsin (unknown origin) using S-2222 as substrate after 15 mins by spectrophotometry; format: protein assay
[2] = target: Prothrombin (Homo sapiens, UniProt P00734); assay: Inhibition of thrombin (unknown origin) using S-2238 as substrate after 15 mins by spectrophotometry
[3] = target: Coagulation factor X (Homo sapiens, UniProt P00742); assay: Inhibition of factor 10a (unknown origin) using S-2222 as substrate after 15 mins by spectrophotometry
Chain of Coagulation factor X (P00742 41-179 limits assumed): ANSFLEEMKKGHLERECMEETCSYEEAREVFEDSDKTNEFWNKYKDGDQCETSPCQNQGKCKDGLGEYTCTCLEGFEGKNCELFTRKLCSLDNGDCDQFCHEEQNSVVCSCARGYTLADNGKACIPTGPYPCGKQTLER
Chain of Coagulation factor X (P00742 235-488 limits assumed): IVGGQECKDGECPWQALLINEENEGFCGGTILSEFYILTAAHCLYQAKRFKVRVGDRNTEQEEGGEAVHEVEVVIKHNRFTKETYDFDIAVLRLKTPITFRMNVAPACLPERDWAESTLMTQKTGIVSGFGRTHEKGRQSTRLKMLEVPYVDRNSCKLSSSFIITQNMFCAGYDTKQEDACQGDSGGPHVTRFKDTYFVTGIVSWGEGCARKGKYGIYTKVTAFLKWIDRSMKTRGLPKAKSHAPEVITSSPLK

[4] = Metabolic stability in human plasma assessed as compound remaining at […] after 4 hrs by HPLC analysis; format: ADME, cell-free; conditions: read-out: Stability

SMILES	Ki [1] [µM]	Ki [2] [µM]	Ki [3] [nM]	remaining at 4 h [4] [%]
O=C(NC[C@H]1CN(c2ccc(N3CCC(C(=O)O)CC3)cc2)C(=O)O1)c1ccc(Cl)s1 (mixture of isomers)	> 100	16.6	88.7	
CCOC(=O)C1CCCCN1c1ccc(N2C[C@H](CNC(=O)c3ccc(Cl)s3)OC2=O)cc1 (mixture of isomers)	> 100	0.353	62.2	100
CCOC(=O)C1CCN(c2ccc(N3C[C@H](CNC(=O)c4ccc(Cl)s4)OC3=O)cc2)C(=O)C1 (mixture of isomers)	> 100	> 100	21.9	
O=C(NC[C@H]1CN(c2ccc(N3CCC(C(=O)O)CC3=O)cc2)C(=O)O1)c1ccc(Cl)s1 (mixture of isomers)	> 100	69.6	337	
CCOC(=O)C1CCN(c2ccc(N3C[C@H](CNC(=O)c4ccc(Cl)s4)OC3=O)cc2)CC1 (mixture of isomers)	> 100	> 100	769	95
CCOC(=O)C1CCCN(c2ccc(N3C[C@H](CNC(=O)c4ccc(Cl)s4)OC3=O)cc2)C1 (mixture of isomers)	> 100	> 100	62.4	
O=C(NC[C@H]1CN(c2ccc(N3CCCC(C(=O)O)C3)cc2)C(=O)O1)c1ccc(Cl)s1 (mixture of isomers)	> 100	17.6	1220	
